Test results from the NIST ThermoML archive (doi:10.1016/j.jct.2005.10.006).
Several values for one entry are separate records, joined by “and”; a condition that tells them apart may be missing. Equal entries are not always repeated.

Test: xn = mol fraction of the nth substance listed
Conditions: Fluid (supercritical or subcritical phases), Spherical resonator

N#N [nitrogen] + C
Conditions | speed of sound
170 K, 124.7 kPa, x1 = 0.5422 | 291.53 m/s
170 K, 150 kPa, x1 = 0.5422 | 291.29 m/s
170 K, 174.8 kPa, x1 = 0.5422 | 291.06 m/s
170 K, 199.8 kPa, x1 = 0.5422 | 290.83 m/s
170 K, 224.8 kPa, x1 = 0.5422 | 290.59 m/s
170 K, 249.8 kPa, x1 = 0.5422 | 290.36 m/s
170 K, 279.7 kPa, x1 = 0.5422 | 290.07 m/s
170 K, 280 kPa, x1 = 0.5422 | 290.07 m/s
170 K, 409.7 kPa, x1 = 0.5422 | 288.85 m/s
170 K, 409.8 kPa, x1 = 0.5422 | 288.85 m/s
170 K, 680.3 kPa, x1 = 0.5422 | 286.28 m/s
170 K, 680.4 kPa, x1 = 0.5422 | 286.28 m/s
170 K, 1293 kPa, x1 = 0.5422 | 280.36 m/s
170 K, 2374 kPa, x1 = 0.5422 | 269.67 m/s and 269.68 m/s
170 K, 3248 kPa, x1 = 0.5422 | 261.01 m/s
170 K, 3249 kPa, x1 = 0.5422 | 260.99 m/s
170 K, 3953 kPa, x1 = 0.5422 | 254.33 m/s
170 K, 3954 kPa, x1 = 0.5422 | 254.32 m/s
170 K, 4555 kPa, x1 = 0.5422 | 249.39 m/s
170 K, 4572 kPa, x1 = 0.5422 | 249.51 m/s
190 K, 311.9 kPa, x1 = 0.5422 | 307.35 m/s
190 K, 457.6 kPa, x1 = 0.5422 | 306.42 m/s
190 K, 762.5 kPa, x1 = 0.5422 | 304.49 m/s
190 K, 1464 kPa, x1 = 0.5422 | 300.13 m/s
190 K, 2748 kPa, x1 = 0.5422 | 292.7 m/s
190 K, 3852 kPa, x1 = 0.5422 | 287.32 m/s
190 K, 4810 kPa, x1 = 0.5422 | 284.03 m/s
190 K, 5716 kPa, x1 = 0.5422 | 282.84 m/s
215 K, 351.4 kPa, x1 = 0.5422 | 327.5 m/s
215 K, 516.2 kPa, x1 = 0.5422 | 326.87 m/s
215 K, 863.4 kPa, x1 = 0.5422 | 325.57 m/s
215 K, 1672 kPa, x1 = 0.5422 | 322.77 m/s
215 K, 3199 kPa, x1 = 0.5422 | 318.49 m/s
215 K, 4573 kPa, x1 = 0.5422 | 316.24 m/s
215 K, 5826 kPa, x1 = 0.5422 | 316.02 m/s
215 K, 7070 kPa, x1 = 0.5422 | 317.96 m/s
220 K, 99.6 kPa, x1 = 0.2 | 363.86 m/s
220 K, 101.5 kPa, x1 = 0.2 | 363.89 m/s
220 K, 200 kPa, x1 = 0.1 | 374.49 m/s
220 K, 249.1 kPa, x1 = 0.2 | 362.81 m/s
220 K, 249.2 kPa, x1 = 0.2 | 362.81 m/s
220 K, 249.5 kPa, x1 = 0.2 | 362.85 m/s
220 K, 498.6 kPa, x1 = 0.2 | 361.06 m/s
220 K, 498.8 kPa, x1 = 0.2 | 361.05 m/s
220 K, 499.1 kPa, x1 = 0.2 | 361.09 m/s
220 K, 501.4 kPa, x1 = 0.1 | 371.96 m/s
220 K, 998.6 kPa, x1 = 0.2 | 357.56 m/s
220 K, 999.3 kPa, x1 = 0.2 | 357.56 m/s
220 K, 1001 kPa, x1 = 0.1 | 367.77 m/s
220 K, 1003 kPa, x1 = 0.2 | 357.57 m/s
220 K, 2006 kPa, x1 = 0.2 | 350.72 m/s
220 K, 2007 kPa, x1 = 0.1 | 359.38 m/s
220 K, 2008 kPa, x1 = 0.2 | 350.73 m/s
220 K, 3014 kPa, x1 = 0.2 | 344.27 m/s
220 K, 3016 kPa, x1 = 0.2 | 344.28 m/s
220 K, 3018 kPa, x1 = 0.1 | 351.21 m/s
220 K, 4002 kPa, x1 = 0.2 | 338.63 m/s
220 K, 4034 kPa, x1 = 0.2 | 338.48 m/s
220 K, 4040 kPa, x1 = 0.1 | 343.53 m/s
220 K, 5057 kPa, x1 = 0.2 | 333.84 m/s
220 K, 6079 kPa, x1 = 0.2 | 331.09 m/s
220 K, 6099 kPa, x1 = 0.1 | 332.63 m/s
220 K, 7000 kPa, x1 = 0.2 | 331.07 m/s
220 K, 7981 kPa, x1 = 0.2 | 334.7 m/s
220 K, 8215 kPa, x1 = 0.1 | 339.23 m/s
220 K, 9000 kPa, x1 = 0.2 | 343.57 m/s
220 K, 9974 kPa, x1 = 0.2 | 357.39 m/s
220 K, 10421 kPa, x1 = 0.1 | 383.6 m/s
220 K, 10996 kPa, x1 = 0.2 | 376.87 m/s
220 K, 12068 kPa, x1 = 0.2 | 401.11 m/s
220 K, 12996 kPa, x1 = 0.2 | 423.71 m/s
220 K, 14014 kPa, x1 = 0.2 | 449.03 m/s
220 K, 14274 kPa, x1 = 0.1 | 498.94 m/s
220 K, 14891 kPa, x1 = 0.2 | 470.66 m/s
220 K, 16024 kPa, x1 = 0.2 | 497.89 m/s
220 K, 16645 kPa, x1 = 0.1 | 562.65 m/s
220 K, 17031 kPa, x1 = 0.2 | 521.17 m/s
220 K, 18043 kPa, x1 = 0.1 | 596.39 m/s
220 K, 18088 kPa, x1 = 0.2 | 544.6 m/s
220 K, 19087 kPa, x1 = 0.2 | 565.86 m/s
220 K, 19556 kPa, x1 = 0.2 | 575.49 m/s
220 K, 19985 kPa, x1 = 0.1 | 639.27 m/s
220 K, 25037 kPa, x1 = 0.2 | 675.84 m/s
220 K, 30201 kPa, x1 = 0.2 | 753.84 m/s
250 K, 99.6 kPa, x1 = 0.2 | 387.32 m/s
250 K, 105 kPa, x1 = 0.2 | 387.33 m/s
250 K, 199.6 kPa, x1 = 0.1 | 398.92 m/s
250 K, 249.1 kPa, x1 = 0.2 | 386.69 m/s
250 K, 249.5 kPa, x1 = 0.2 | 386.7 m/s
250 K, 405.3 kPa, x1 = 0.5422 | 353.38 m/s
250 K, 498.3 kPa, x1 = 0.2 | 385.62 m/s
250 K, 499.1 kPa, x1 = 0.1 | 397.32 m/s
250 K, 499.1 kPa, x1 = 0.2 | 385.63 m/s
250 K, 596.4 kPa, x1 = 0.5422 | 353.08 m/s
250 K, 998.2 kPa, x1 = 0.2 | 383.53 m/s
250 K, 998.9 kPa, x1 = 0.2 | 383.54 m/s
250 K, 999.8 kPa, x1 = 0.1 | 394.71 m/s
250 K, 1001 kPa, x1 = 0.5422 | 352.48 m/s
250 K, 1955 kPa, x1 = 0.5422 | 351.35 m/s
250 K, 2002 kPa, x1 = 0.2 | 379.64 m/s
250 K, 2004 kPa, x1 = 0.1 | 389.75 m/s
250 K, 2005 kPa, x1 = 0.2 | 379.64 m/s
250 K, 2974 kPa, x1 = 0.1 | 385.4 m/s
250 K, 3002 kPa, x1 = 0.2 | 376.26 m/s
250 K, 3014 kPa, x1 = 0.2 | 376.24 m/s
250 K, 3805 kPa, x1 = 0.5422 | 350.46 m/s
250 K, 4021 kPa, x1 = 0.2 | 373.48 m/s
250 K, 4026 kPa, x1 = 0.2 | 373.48 m/s
250 K, 4027 kPa, x1 = 0.1 | 381.43 m/s
250 K, 4989 kPa, x1 = 0.2 | 371.62 m/s
250 K, 5030 kPa, x1 = 0.2 | 371.55 m/s
250 K, 5041 kPa, x1 = 0.1 | 378.44 m/s
250 K, 5536 kPa, x1 = 0.5422 | 351.48 m/s
250 K, 5903 kPa, x1 = 0.2 | 370.69 m/s
250 K, 6000 kPa, x1 = 0.2 | 370.66 m/s
250 K, 6066 kPa, x1 = 0.1 | 376.58 m/s
250 K, 7002 kPa, x1 = 0.2 | 370.93 m/s
250 K, 7089 kPa, x1 = 0.1 | 376.21 m/s
250 K, 7176 kPa, x1 = 0.5422 | 354.43 m/s
250 K, 8018 kPa, x1 = 0.2 | 372.66 m/s
250 K, 8117 kPa, x1 = 0.1 | 377.7 m/s
250 K, 8849 kPa, x1 = 0.5422 | 359.54 m/s
250 K, 8859 kPa, x1 = 0.5422 | 359.5 m/s
250 K, 9001 kPa, x1 = 0.2 | 375.95 m/s
250 K, 9155 kPa, x1 = 0.1 | 381.49 m/s
250 K, 10175 kPa, x1 = 0.2 | 382.17 m/s
250 K, 10204 kPa, x1 = 0.1 | 387.94 m/s
250 K, 11195 kPa, x1 = 0.2 | 389.7 m/s
250 K, 11238 kPa, x1 = 0.1 | 397.06 m/s
250 K, 12284 kPa, x1 = 0.1 | 408.99 m/s
250 K, 13078 kPa, x1 = 0.2 | 408.65 m/s
250 K, 13320 kPa, x1 = 0.1 | 423.21 m/s
250 K, 14003 kPa, x1 = 0.2 | 420.05 m/s
250 K, 14166 kPa, x1 = 0.1 | 436.28 m/s
250 K, 15044 kPa, x1 = 0.1 | 450.92 m/s
250 K, 15316 kPa, x1 = 0.2 | 438.11 m/s
250 K, 16059 kPa, x1 = 0.2 | 449.07 m/s
250 K, 16075 kPa, x1 = 0.1 | 469.1 m/s
250 K, 17054 kPa, x1 = 0.2 | 464.35 m/s
250 K, 17093 kPa, x1 = 0.1 | 487.71 m/s
250 K, 18084 kPa, x1 = 0.1 | 506.09 m/s
250 K, 18089 kPa, x1 = 0.2 | 480.72 m/s
250 K, 18990 kPa, x1 = 0.1 | 522.94 m/s
250 K, 19031 kPa, x1 = 0.2 | 495.86 m/s
250 K, 19850 kPa, x1 = 0.2 | 509.09 m/s
250 K, 19992 kPa, x1 = 0.1 | 541.47 m/s
250 K, 25516 kPa, x1 = 0.1 | 637.9 m/s
